Reference: patent US20220202964A1, “HEPARANASE COMPOUNDS AND METHODS OF USE” (University of Florida Research Foundation, Incorporated, priority 2019, published 2022)

Tests used:
β-Glucuronidase = target: T1, β-Glucuronidase (Homo sapiens, UniProt P08236); assay: Fluorescence response to biological species: β-glucuronidase; format: biochemical; conditions: 5 μM; β-glucuronidase 5 μg; 4 h, 37° C.
T1 sequence (P08236 23-651): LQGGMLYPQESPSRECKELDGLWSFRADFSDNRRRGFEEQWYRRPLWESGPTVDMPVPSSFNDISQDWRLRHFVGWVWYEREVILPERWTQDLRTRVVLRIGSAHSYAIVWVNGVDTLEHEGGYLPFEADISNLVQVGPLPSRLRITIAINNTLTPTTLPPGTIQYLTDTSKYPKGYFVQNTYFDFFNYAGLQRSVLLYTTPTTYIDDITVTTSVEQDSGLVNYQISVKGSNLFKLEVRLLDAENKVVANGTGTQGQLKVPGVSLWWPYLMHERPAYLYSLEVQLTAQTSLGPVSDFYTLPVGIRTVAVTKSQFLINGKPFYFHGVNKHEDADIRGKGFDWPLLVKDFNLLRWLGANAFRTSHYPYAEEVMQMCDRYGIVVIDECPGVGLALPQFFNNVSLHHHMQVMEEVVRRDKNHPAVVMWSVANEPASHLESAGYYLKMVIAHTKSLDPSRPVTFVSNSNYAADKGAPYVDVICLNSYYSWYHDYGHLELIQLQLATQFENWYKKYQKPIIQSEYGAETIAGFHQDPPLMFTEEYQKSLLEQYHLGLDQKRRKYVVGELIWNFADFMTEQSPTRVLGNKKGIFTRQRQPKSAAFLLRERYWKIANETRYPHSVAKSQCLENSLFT
Description: (§1) 5 μM compound 1 (HADP) was incubated with various biological species at the indicated amount/concentration in 96-well microplate. Cysteine (5 mM), Glutathione (5 mM), H2O2 (100 μM), Esterase, Chondroitinase ABC, Hyaluronidase, Lysozyme, β-Glucuronidase, β-Glucosidase (5 μg each) and heparanase (2 μg). For Chondroitinase ABC and Hyaluronidase, 50 μg was also tested. Each sample was performed in triplicates. Then the microplate was sealed with sealing film and incubated at 37° C. for 4 hours. Fluorescence intensity was recorded on Spectramax M5 Multimode plate reader (Molecular Devices, USA). λex/em=365 nm/455 nm.

[1] = Fluorescence response to biological oxidizing and reducing species; conditions: 5 μM; 100 μM H2O2, 5 mM GSH and Cys; 4 h, 37° C.
Description: as §1

[2] = pH profile of fluorescence / pKa; format: physicochemical; conditions: pH range from 1 to 13
Description: So, pH profiles of the fluorophore DiFMU and Compound 1 (HADP) were evaluated. […] In contrast, the pKa of 4-methylumbelliferone is ca. 7.8. […] Moreover, the introduction of the fluorine substituents increased the quantum yield and improved the photostability, enabling highly sensitive detection for heparanase.

Chondroitinase ABC = target: T2, Chondroitinase ABC (Proteus vulgaris, UniProt P59807); assay: Fluorescence response to biological species: chondroitinase; format: biochemical; conditions: 5 μM; chondroitinase 5 μg (50 μg also tested); 4 h, 37° C.
T2 sequence (P59807 25-1021): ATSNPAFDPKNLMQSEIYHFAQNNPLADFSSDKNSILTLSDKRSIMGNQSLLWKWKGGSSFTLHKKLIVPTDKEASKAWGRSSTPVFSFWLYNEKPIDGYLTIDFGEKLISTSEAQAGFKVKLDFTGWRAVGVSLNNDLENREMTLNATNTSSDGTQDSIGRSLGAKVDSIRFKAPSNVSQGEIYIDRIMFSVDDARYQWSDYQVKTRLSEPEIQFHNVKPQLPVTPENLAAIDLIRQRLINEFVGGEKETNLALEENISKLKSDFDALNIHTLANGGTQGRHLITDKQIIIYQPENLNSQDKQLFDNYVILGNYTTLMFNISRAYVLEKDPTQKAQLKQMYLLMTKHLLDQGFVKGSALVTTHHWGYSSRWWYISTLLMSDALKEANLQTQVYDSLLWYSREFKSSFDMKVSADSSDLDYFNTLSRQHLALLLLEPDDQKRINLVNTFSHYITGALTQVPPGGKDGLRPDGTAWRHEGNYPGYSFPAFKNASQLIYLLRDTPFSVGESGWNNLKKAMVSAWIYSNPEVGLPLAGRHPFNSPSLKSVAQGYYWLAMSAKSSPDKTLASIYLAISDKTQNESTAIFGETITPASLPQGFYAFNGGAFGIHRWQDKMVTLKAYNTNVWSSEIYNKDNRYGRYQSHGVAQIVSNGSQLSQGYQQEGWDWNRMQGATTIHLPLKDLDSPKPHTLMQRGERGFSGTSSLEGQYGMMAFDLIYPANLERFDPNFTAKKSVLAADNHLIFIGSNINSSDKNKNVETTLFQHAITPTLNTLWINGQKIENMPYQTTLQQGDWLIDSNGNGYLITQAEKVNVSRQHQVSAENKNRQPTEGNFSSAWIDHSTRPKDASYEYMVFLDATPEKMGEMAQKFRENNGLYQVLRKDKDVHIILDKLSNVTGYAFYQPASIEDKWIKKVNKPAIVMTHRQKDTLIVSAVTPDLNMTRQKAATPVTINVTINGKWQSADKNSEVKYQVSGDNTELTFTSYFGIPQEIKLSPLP
Description: as §1

Hyaluronidase = assay: Fluorescence response to biological species: hyaluronidase; format: biochemical; conditions: 5 μM; hyaluronidase 5 μg (50 μg also tested); 4 h, 37° C.
Description: as §1

fluorescence response (β-Glucuronidase): did not trigger fluorescence response
fluorescence change at 455 nm over pH [2]: no remarkable fluorescence change
SMILES: Cc1cc(=O)oc2c(F)c(O[C@@H]3O[C@H](C(=O)O)[C@@H](O[C@H]4O[C@H](CO)[C@@H](O)[C@H](O)[C@H]4NS(=O)(=O)O)[C@H](O)[C@H]3O)c(F)cc12 [Compound 1]
fluorescence change [1]: No fluorescence change
fluorescence change (Chondroitinase ABC): did not afford obvious fluorescence change
fluorescence change (Hyaluronidase): did not afford obvious fluorescence change
